Laboratory results: ChEMBL document CHEMBL1121775, “Synthesis and antimalarial effects of N2-aryl-N4-[(dialkylamino)alkyl]- and N4-aryl-N2-[(dialkylamino)alkyl]-2,4-quinazolinediamines” (J Med Chem, 1981)
Several values for one entry are separate records, joined by “and”; a condition that tells them apart may be missing. Equal values may be shown once.

Tests used:
Mus musculus [1] = experiment: (§1) Number of toxic deaths at a dose of 640 mg/kg; type: functional
Plasmodium berghei [2] = experiment: Antimalarial effect against trophozoite-induced Plasmodium berghei in mice (Mus musculus) at 320 mg/kg subcutaneous dose; type: functional
Plasmodium berghei [3] = experiment: Antimalarial effect against trophozoite-induced Plasmodium berghei in mice (Mus musculus) after 40 mg/kg subcutaneous dose; type: functional
Plasmodium berghei [4] = experiment: Antimalarial effect against trophozoite-induced Plasmodium berghei in mice (Mus musculus) at 640 mg/kg subcutaneous dose; type: functional; conditions: 640 mg/kg
[5] = The ratio of SD90 of the quinine hydrochloride, to the SD90 of the test substance for the Dose of 50 mg/kg; type: functional
Plasmodium berghei [6] = experiment: Antimalarial effect against trophozoite-induced Plasmodium berghei in mice (Mus musculus) at 160 mg/kg subcutaneous dose; type: functional
Plasmodium berghei [7] = experiment: Antimalarial activity against trophozoite-induced Plasmodium berghei in mice (Mus musculus); type: functional
Plasmodium berghei [8] = experiment: Antimalarial effect against trophozoite-induced Plasmodium berghei in mice (Mus musculus) at 80 mg/kg subcutaneous dose; type: functional
Plasmodium berghei [9] = experiment: Antimalarial effect against trophozoite-induced Plasmodium berghei in mice (Mus musculus) after 20 mg/kg subcutaneous dose; type: functional
Mus musculus [10] = experiment: as §1; type: toxicity, organism-based; set-up: dose 640 mg/kg; conditions: in vivo
[11] = The ratio of SD90 of the quinine hydrochloride, to the SD90 of the test substance for the Dose of >30 mg/kg; type: functional
Mus musculus [12] = experiment: Number of mice cured at a dose of 320 mg/kg sc; type: functional; conditions: route subcutaneous
Mus musculus [13] = experiment: Number of mice cured at a subcutaneous dose of 160 mg/kg.; type: functional
Mus musculus [14] = experiment: Antimalarial effect against trophozoite-induced Plasmodium berghei in mice (Mus musculus) at dosage of 80 mg/kg after subcutaneous administration; No. of mice (Mus musculus) surviving after 60 days 1; type: functional
Mus musculus [15] = experiment: (§2) The ratio of SD90 of the quinine hydrochloride, to the SD90 of the test substance for the Dose of 8.5 mg/kg; type: functional
[16] = as §2; type: functional
Mus musculus [17] = experiment: Antimalarial effect against trophozoite-induced Plasmodium berghei in mice (Mus musculus) at dosage of 80 mg/kg after subcutaneous administration; type: functional
Plasmodium berghei [18] = experiment: Antimalarial activity against trophozoite-induced Plasmodium berghei in mice (Mus musculus) at 160 mg/kg subcutaneous dose; type: functional; conditions: 160 mg/kg
Mus musculus [19] = experiment: Antimalarial effect against trophozoite induced Plasmodium berghei in mice (Mus musculus) at dosage of 160 mg/kg after subcutaneous administration; No. of mice (Mus musculus) surviving after 60 days 1; type: functional
Mus musculus [20] = experiment: Number of mice cured at a dose of 40 mg/kg sc; type: functional; conditions: route subcutaneous
[21] = The ratio of SD90 of the quinine hydrochloride, to the SD90 of the test substance for the Dose of 0.28 mg/kg; type: functional
Mus musculus [22] = experiment: Number of mice cured at a subcutaneous dose of 320 mg/kg.; type: functional; conditions: 320 mg/kg
Mus musculus [23] = experiment: Number of mice cured at a dose of 80 mg/kg sc; type: functional; conditions: route subcutaneous
Mus musculus [24] = experiment: Number of mice cured at a dose of 640 mg/kg sc; type: functional; conditions: route subcutaneous, 640 mg/kg

## CCN(CC)CCNc1nc(Nc2ccc(N3CCN(C)CC3)cc2)nc2ccccc12
Mus musculus [1]
  No. of toxic deaths: 3
Plasmodium berghei [2]
  MST: 5.2 days
Plasmodium berghei [3]; 40 mg/kg
  MST: 1 days and 0.8 days
Plasmodium berghei [4]
  MST: 6.8 days and 6.3 days
[5]
  Ratio: 1.5
Plasmodium berghei [6]; 160 mg/kg
  MST: 4.8 days and 4.2 days
Plasmodium berghei [7]
  SD90: 50 mg/kg/day
Plasmodium berghei [8]
  MST: 3.4 days
Plasmodium berghei [9]
  MST: 0.2 days
Mus musculus [10]
  No. of toxic deaths: 3

## CCOc1ccc(Nc2nc(NCCN(CC)CC)c3ccc(Cl)cc3n2)cc1CN(CC)CC
[11]
  Ratio: <2.5
Plasmodium berghei [3]
  MST: 0.6 days
Plasmodium berghei [6]
  MST: 0.8 days
Plasmodium berghei [7]
  SD90: >30 mg/kg/day
Mus musculus [10]
  No. of toxic deaths: 5

## CCN(CC)C1CCC(Nc2nc(Nc3ccc(Cl)c(Cl)c3)nc3ccccc23)CC1 (stereo not given)
Plasmodium berghei [2]
  MST: 22.9 days
Mus musculus [12]
  No. of cured: 5
Mus musculus [13]
  No. of survivals: 1
Mus musculus [14]
  MST: 10.4 days
Plasmodium berghei [3]; 40 mg/kg
  MST: 10.1 days and 10.5 days
Mus musculus [15]
  Ratio: 8.8
[16]
  Ratio: 8.8
Mus musculus [17]
  MST: 10.4 days
Plasmodium berghei [18]
  MST: 13.9 days and 13.7 days
Plasmodium berghei [7]
  SD90: 8.5 mg/kg/day
Plasmodium berghei [9]
  MST: 0.9 days
Mus musculus [19]
  MST: 13.7 days

## CCc1nc(N)nc(N)c1-c1ccc(Cl)cc1 [PYRIMETHAMINE]
Mus musculus [13]
  No. of survivals: 5
Mus musculus [20]
  No. of survivals: 1
[21]
  Ratio: 270
Mus musculus [22]
  No. of survivals: 2 and 3
Plasmodium berghei [7]
  SD90: 0.28 mg/kg/day
Mus musculus [23]
  No. of survivals: 3
Mus musculus [24]
  No. of survivals: 1 and 2
Plasmodium berghei [9]
  MST: 7.7 days
